Data: patent publication US10072045B1, “Antibacterial lipopeptides and methods for their preparation and use” (priority 2017, dated 2018)
Values after ≈ are worked out from the molar mass of the structure shown. Where two headings read alike, the source gives them in different places.

What was measured:
Assay type in all cases: cell-based
[1] = test system: Vancomycin-Resistant Enterococci faecium (VRE, ATCC 700221); test: microbe, parasite or virus in culture
Procedure: (§1) See, Balouiri, M.; Sadiki, M.; Ibnsouda, S. K.; Methods for In vitro evaluation of antimicrobial activity: review. Journal of Pharmaceutical Analysis, 2016, 6 (2), 71-79; CLSI, Methods for Dilution Antimicrobial Susceptibility Tests for Bacteria that Grow Aerobically, Approved Standard, 9th Ed, CLSI document M07-A9. Approximately 50 μl of the bacterial (MRSA or MSSA) cell suspension (1.0×10^6/ml) inoculated in each well (96-micro well plate) containing 50 μl of dosing solution and plates were incubated at 37±+1C for 18 hrs. After the incubation, bacterial growth in each well of 96-well plate were calorimetrically measured by a Biotek microtiter plate reader at 630 nm. The bacterial growth inhibition (GI) is expressed as a percentage relative to the negative control.
(§2) Vancomycin-Resistant Enterococci faecium (VRE, ATCC 700221);

[2] = test system: Vancomycin-Resistant Enterococci faecalis (VRE, ATCC 51299); test: microbe, parasite or virus in culture
Procedure: as §1
(§3) Vancomycin-Resistant Enterococci faecalis (VRE, ATCC 51299);

[3] = test system: Vancomycin-Sensitive Enterococci faecalis (VSE, ATCC 29212); test: microbe, parasite or virus in culture
Procedure: as §1
Vancomycin-Sensitive Enterococci faecalis (VSE, ATCC 29212);

[4] = test system: Vancomycin-Sensitive Enterococci hirae (VSE, ATCC 1056); test: microbe, parasite or virus in culture
Procedure: as §1
Vancomycin-Sensitive Enterococci hirae (VSE, ATCC 1056).

[5] = test system: Methicillin-Resistant Staphylococcus aureus (MRSA, ATCC33591); test: microbe, parasite or virus in culture; settings: for potency relative to daptomycin against MRSA: fold as potent as daptomycin
Procedure: as §1
Methicillin-Resistant Staphylococcus aureus (MRSA, ATCC33591)

[6] = test system: Methicillin-Sensitive Staphylococcus aureus (MSSA, ATCC6538); test: microbe, parasite or virus in culture; settings: read-out: Minimum Inhibitory Concentration (MIC) MSSA (ATCC6538)
Procedure: as §1
Methicillin-Sensitive Staphylococcus aureus (MSSA, ATCC6538)

[7] = test system: Methicillin-Resistant Staphylococcus aureus (MRSA, PBR Lab Culture#1152); test: microbe, parasite or virus in culture; settings: Test B, read-out: Minimum Inhibitory Concentration (MIC) MRSA (PBR1152)
Procedure: as §1
Methicillin-Resistant Staphylococcus aureus (MRSA, PBR Lab Culture#1152)

[8] = test system: Vancomycin-Resistant Enterococci (VRE); test: Potency against VRE relative to daptomycin (Test C); settings: fold better potency; strain not specified
Procedure: as §1, §2, §3

SMILES	Minimum Inhibitory Concentration (MIC) VRE (ATCC 700221) [1] [µM]	Minimum Inhibitory Concentration (MIC) VRE (ATCC 51299) [2] [µM]	Minimum Inhibitory Concentration (MIC) VSE (ATCC 29212) [3] [µM]	Minimum Inhibitory Concentration (MIC) VSE (ATCC 1056) [4] [µM]	also measured
CCCCCCCCCC(=O)N[C@@H](Cc1c[nH]c2ccccc12)C(=O)N[C@H](CC(N)=O)C(=O)N[C@@H](CC(=O)O)C(=O)N[C@@H]1C(=O)NCC(=O)N[C@@H](CCCN)C(=O)N[C@@H](CC(=O)O)C(=O)N[C@H](C)C(=O)N[C@@H](CC(=O)O)C(=O)NCC(=O)N[C@H](CO)C(=O)N[C@@H]([C@H](C)CC(=O)O)C(=O)N[C@@H](CC(=O)c2ccccc2N)C(=O)O[C@@H]1C [Daptomycin, reference compound]	2.5	1.25	1.25	5.0	–
COc1cccc(OC)c1C(=O)N[C@@H]1C(=O)N2[C@@H]1SC(C)(C)[C@@H]2C(=O)O [Methicillin]	–	–	–	–	MIC ([5]; Staphylococcus aureus, Test A, read-out: Minimum Inhibitory Concentration (MIC) MRSA (ATCC33591)): > 64 µg/mL; MIC ([6]; Test A): < 1 µg/mL; MIC ([6]; Test B): < 1 µg/mL; MIC [7]: > 64 µg/mL
CCCCCCCCCC(=O)N[C@@H](Cc1c[nH]c2ccccc12)C(=O)N[C@H](CC(N)=O)C(=O)N[C@@H](CC(=O)O)C(=O)N[C@@H]1C(=O)NCC(=O)N[C@@H](CCCN)C(=O)N[C@@H](CC(=O)O)C(=O)N[C@H](C)C(=O)N[C@@H](CC(=O)O)C(=O)NCC(=O)N[C@H](CO)C(=O)N[C@@H]([C@H](C)CC(=O)O)C(=O)N[C@@H](CC(=O)c2ccccc2NCC)C(=O)O[C@@H]1C [RP001]	1.25	0.625	0.625	5.0	–
CCCCCCCCCC(=O)N[C@@H](Cc1c[nH]c2ccc(F)cc12)C(=O)N[C@H](CC(N)=O)C(=O)N[C@@H](CC(=O)O)C(=O)N[C@@H]1C(=O)NCC(=O)N[C@@H](CCCN)C(=O)N[C@@H](CC(=O)O)C(=O)N[C@H](C)C(=O)N[C@@H](CC(=O)O)C(=O)NCC(=O)N[C@H](CO)C(=O)N[C@@H]([C@H](C)CC(=O)O)C(=O)N[C@@H](CC(=O)c2cc(Cl)cc(Cl)c2NCC)C(=O)O[C@@H]1C [RP005]	<0.156	<0.156	<0.156	<0.156	potency relative to daptomycin against MRSA [5]: roughly 10 fold; potency relative to daptomycin against Vancomycin-Resistant Enterococci (VRE) [8]: roughly 10 fold
CCCCCCCCCC(=O)N[C@@H](Cc1cn(C)c2ccccc12)C(=O)N[C@H](CC(N)=O)C(=O)N[C@@H](CC(=O)O)C(=O)N[C@@H]1C(=O)NCC(=O)N[C@@H](CCCN)C(=O)N[C@@H](CC(=O)O)C(=O)N[C@H](C)C(=O)N[C@@H](CC(=O)O)C(=O)NCC(=O)N[C@H](CO)C(=O)N[C@@H]([C@H](C)CC(=O)O)C(=O)N[C@@H](CC(=O)c2cc(Br)ccc2NCC)C(=O)O[C@@H]1C [RP008]	0.313	<0.156	<0.156	0.313	–
CCCCCCCCCC(=O)N[C@@H](Cc1c[nH]c2ccc(C)cc12)C(=O)N[C@H](CC(N)=O)C(=O)N[C@@H](CC(=O)O)C(=O)N[C@@H]1C(=O)NCC(=O)N[C@@H](CCCN)C(=O)N[C@@H](CC(=O)O)C(=O)N[C@H](C)C(=O)N[C@@H](CC(=O)O)C(=O)NCC(=O)N[C@H](CO)C(=O)N[C@@H]([C@H](C)CC(=O)O)C(=O)N[C@@H](CC(=O)c2ccccc2NCC)C(=O)O[C@@H]1C [RP011]	0.625	<0.156	0.313	1.25	–
CCCCCCCCCC(=O)N[C@@H](Cc1c[nH]c2ccc(C)cc12)C(=O)N[C@H](CC(N)=O)C(=O)N[C@@H](CC(=O)O)C(=O)N[C@@H]1C(=O)NCC(=O)N[C@@H](CCCN)C(=O)N[C@@H](CC(=O)O)C(=O)N[C@H](C)C(=O)N[C@@H](CC(=O)O)C(=O)NCC(=O)N[C@H](CO)C(=O)N[C@@H]([C@H](C)CC(=O)O)C(=O)N[C@@H](CC(=O)c2cc(Cl)cc(Cl)c2NCC)C(=O)O[C@@H]1C [RP012]	<0.156	<0.156	<0.156	<0.156	potency relative to daptomycin against MRSA [5]: roughly 10 fold; potency relative to daptomycin against Vancomycin-Resistant Enterococci (VRE) [8]: roughly 10 fold
CN[C@H](CC(C)C)C(=O)N[C@H]1C(=O)N[C@@H](CC(N)=O)C(=O)N[C@H]2C(=O)N[C@H]3C(=O)N[C@H](C(=O)N[C@H](C(=O)O)c4cc(O)cc(O)c4-c4cc3ccc4O)[C@H](O)c3ccc(c(Cl)c3)Oc3cc2cc(c3O[C@@H]2O[C@H](CO)[C@@H](O)[C@H](O)[C@H]2O[C@H]2C[C@](C)(N)[C@H](O)[C@H](C)O2)Oc2ccc(cc2Cl)[C@H]1O [Vacomycin, reference compound]	–	–	–	–	MIC ([1]; Enterococcus, read-out: Minimum Inhibitory Concentration (MIC) VRE (ATCC 700221)): > 10 µM; MIC ([2]; Enterococcus, read-out: Minimum Inhibitory Concentration (MIC) VRE (ATCC 51299)): > 10 µM; MIC ([3]; Enterococcus faecalis, ATCC29212, read-out: Minimum Inhibitory Concentration (MIC) VSE (ATCC 29212)): 1.25 µM (≈ 1.81 µg/mL); MIC ([4]; Enterococcus hirae, ATCC1056, read-out: Minimum Inhibitory Concentration (MIC) VSE (ATCC 1056)): 0.313 µM (≈ 0.454 µg/mL)
